Measured values published in BindingDB's records for doi:10.1016/j.bioorg.2016.07.005 (Hazara University, 2016).
pIC50: −log10 of the molar value.

Legend:
[1] = target: Acetylcholinesterase (Tetronarce californica, UniProt P04058); experiment: Acetylcholinesterase Assay; details: pH 7.7
Method: Total volume of the reaction mixture was 100 µL. It contained 60 µL Na2HPO4 buffer with concentration of 50 mM and pH 7.7. 10 µL test compound (0.5 mM well-1) was added, followed by the addition of 10 µL (0.005 unit well-1) enzyme. […] Then contents were pre-incubated for 10 min at 37 °C. The reaction was initiated by the addition of 10 µL of 0.5 mM well-1 substrate (acetylthiocholine iodide), followed by the addition of 10 µL DTNB (0.5 mM well-1). […] All experiments were carried out with their respective controls in triplicate.

[2] = target: Cholinesterase (Homo sapiens, UniProt P06276); experiment: Butyrylcholinesterase Assay; details: pH 7.7
Cholinesterase, sequence (P06276 whole entry): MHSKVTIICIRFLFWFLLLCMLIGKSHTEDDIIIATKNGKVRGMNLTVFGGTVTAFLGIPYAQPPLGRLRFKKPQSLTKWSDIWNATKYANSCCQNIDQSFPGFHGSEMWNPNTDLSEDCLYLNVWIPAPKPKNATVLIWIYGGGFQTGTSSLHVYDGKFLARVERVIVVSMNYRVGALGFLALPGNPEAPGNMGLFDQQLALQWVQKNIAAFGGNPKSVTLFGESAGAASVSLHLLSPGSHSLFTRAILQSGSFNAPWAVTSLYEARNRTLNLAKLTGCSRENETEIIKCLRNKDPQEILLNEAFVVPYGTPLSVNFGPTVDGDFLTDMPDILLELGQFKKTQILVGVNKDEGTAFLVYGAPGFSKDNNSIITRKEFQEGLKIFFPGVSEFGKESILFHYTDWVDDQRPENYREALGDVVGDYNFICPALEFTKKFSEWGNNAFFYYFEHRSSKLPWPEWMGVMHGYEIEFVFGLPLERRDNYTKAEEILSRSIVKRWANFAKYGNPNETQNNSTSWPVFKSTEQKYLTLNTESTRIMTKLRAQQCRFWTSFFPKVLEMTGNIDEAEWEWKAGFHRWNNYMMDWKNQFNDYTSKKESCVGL
Method: Total volume of the reaction mixture was 100 µL containing 60 µL, Na2HPO4 buffer, 50 mM and pH 7.7. Ten µL test compound 0.5 mM well-1 was added followedby the addition of 10 µL (0.5 unit well-1) BChE (Sigma Inc.). […] The reaction was initiated by the addition of 10 µL of 0.5 mM well-1 substrate (butyrylthiocholine chloride). Followed by the addition of 10 µL DTNB, 0.5 mM well-1. […] All experiments were carried out with their respective controls in triplicate.

Acetylcholinesterase, sequence (P04058 whole entry): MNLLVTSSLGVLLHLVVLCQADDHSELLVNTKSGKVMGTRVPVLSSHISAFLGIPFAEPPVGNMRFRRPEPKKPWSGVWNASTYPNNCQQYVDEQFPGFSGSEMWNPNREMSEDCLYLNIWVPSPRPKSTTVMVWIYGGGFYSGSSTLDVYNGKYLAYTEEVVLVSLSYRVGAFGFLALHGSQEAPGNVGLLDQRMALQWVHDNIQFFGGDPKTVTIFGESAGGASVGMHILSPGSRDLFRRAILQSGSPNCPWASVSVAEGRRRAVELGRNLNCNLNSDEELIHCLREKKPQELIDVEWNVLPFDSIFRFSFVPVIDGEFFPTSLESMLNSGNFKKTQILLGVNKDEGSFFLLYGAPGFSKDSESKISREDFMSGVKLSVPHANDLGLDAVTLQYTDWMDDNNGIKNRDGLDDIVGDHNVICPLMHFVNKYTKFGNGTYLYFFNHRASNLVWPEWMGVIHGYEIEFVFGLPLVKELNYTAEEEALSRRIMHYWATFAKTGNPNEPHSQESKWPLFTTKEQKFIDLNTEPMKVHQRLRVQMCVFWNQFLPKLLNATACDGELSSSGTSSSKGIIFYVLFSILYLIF

Row | SMILES | pIC50 [1] | pIC50 [2]
1 | CCOc1ccccc1/C=N\NC(=O)c1ccccc1O [N'-[(Z)-(2-ethoxyphenyl)methylidene]-2-hydroxybenzohydrazide (20)] | 3.38 | 3.93
2 | CCCCOc1ccc(/C=N\NC(=O)c2ccccc2O)cc1 [N0-[(Z)-(4-butoxyphenyl)methylidene]-2-hydroxybenzohydrazide (7)] | 4.81 | 4.38
3 | O=C(N/N=C\c1cccc(Br)c1)c1ccccc1O [N'-[(Z)-(3-bromophenyl)methylidene]-2-hydroxybenzohydrazide (19)] | 3.81 | 3.92
4 | O=C(N/N=C\c1cccs1)c1ccccc1O [2-Hydroxy-N'-[(Z)-2-thienylmethylidene]benzohydrazide (23)] | 3.37 | –
5 | CSc1ccc(/C=N\NC(=O)c2ccccc2O)cc1 [2-Hydroxy-N'-{(Z)-[4-(methylsulfanyl)phenyl]methylidene} benzohydrazide (22)] | 3.36 | –
6 | COc1ccc(/C=N\NC(=O)c2ccccc2O)c(OC)c1 [N'-[(Z)-(2,4-dimethoxyphenyl)methylidene]-2-hydroxybenzohydrazide (9)] | – | 3.53
7 | COc1cccc(/C=N\NC(=O)c2ccccc2O)c1OC [N'-[(Z)-(2,3-dimethoxyphenyl)methylidene]-2-hydroxybenzohydrazide (15)] | – | 4.21
8 | O=C(N/N=C\c1c2ccccc2cc2ccccc12)c1ccccc1O [(Z)-N'-(anthracen-10-ylmethylene)-2-hydroxybenzohydrazide (10)] | 5.39 | –
9 | O=C(N/N=C\c1cc(F)ccc1Br)c1ccccc1O [N'-[(Z)-(2-bromo-5-fluorophenyl)methylidene]-2-hydroxybenzohydrazide (21)] | 3.51 | 3.57
10 | COc1ccc(/C=N\NC(=O)c2ccccc2O)cc1OCc1ccccc1 [N'-{(Z)-[3-(benzyloxy)-4-methoxyphenyl]methylidene}-2-hydroxybenzohydrazide (16)] | – | 4.06
11 | O=C(N/N=C\c1cc(Cl)cc(Cl)c1O)c1ccccc1O [N'-[(Z)-(3,5-dichloro-2-hydroxyphenyl)methylidene]-2-hydroxybenzohydrazide (24)] | 5.08 | 5.04
12 | CCOc1ccc(/C=N\NC(=O)c2ccccc2O)cc1 [N'-[(Z)-(4-ethoxyphenyl)methylidene]-2-hydroxybenzohydrazide (8)] | 3.66 | 3.93
13 | COc1ccc(/C=N\NC(=O)c2ccccc2O)cc1Br [N'-[(Z)-(3-bromo-4-methoxyphenyl)methylidene]-2-hydroxybenzohydrazide (17)] | 4.70 | 4.42
14 | O=C(N/N=C\c1ccc(C(F)(F)F)cc1)c1ccccc1O [2-Hydroxy-N'-{(Z)-[4-(trifluoromethyl)phenyl]methylidene} benzohydrazide (18)] | 4.31 | 3.67
15 | O=C(N/N=C\c1ccc(Br)cc1F)c1ccccc1O [N'-[(Z)-(4-bromo-2-fluorophenyl)methylidene]-2-hydroxybenzohydrazide (26)] | 3.43 | 3.35
16 | O=C(N/N=C\c1ccco1)c1ccccc1O [N'-[(Z)-2-furylmethylidene]-2-hydroxybenzohydrazide (11)] | – | 3.38
17 | O=C(N/N=C\c1ccc(Cl)cc1Cl)c1ccccc1O [N'-[(Z)-(2,4-dichlorophenyl)methylidene]-2-hydroxybenzohydrazide (6)] | 4.74 | 4.37
18 | O=C(N/N=C\c1ccc(OCc2ccccc2)cc1)c1ccccc1O [N'-{(Z)-[4-(benzyloxy)phenyl]methylidene}-2-hydroxybenzohydrazide (3)] | 5.09 | 4.42
19 | CC(C)(C)c1ccc(/C=N\NC(=O)c2ccccc2O)cc1 [N'-{(Z)-[4-(tert-butyl)phenyl]methylidene}-2-hydroxybenzohydrazide (13)] | 4.03 | 5.19
20 | COc1cccc(OC)c1/C=N\NC(=O)c1ccccc1O [N'-[(Z)-(2,6-dimethoxyphenyl)methylidene]-2-hydroxybenzohydrazide (2)] | 3.34 | 4.10
21 | O=C(N/N=C\c1cccc(C(F)(F)F)c1)c1ccccc1O [2-Hydroxy-N'-{(Z)-[3-(trifluoromethyl)phenyl]methylidene} benzohydrazide (14)] | 4.25 | 3.95
22 | O=C(N/N=C\c1cccc(O)c1)c1ccccc1O [2-Hydroxy-N'-[(Z)-(3-hydroxyphenyl)methylidene]benzohydrazide (27)] | 3.45 | –
23 | O=C(N/N=C\c1ccc(F)c(Br)c1)c1ccccc1O [N'-[(Z)-(3-bromo-4-fluorophenyl)methylidene]-2-hydroxybenzohydrazide (25)] | 3.51 | –
24 | CC(C)c1ccc(/C=N\NC(=O)c2ccccc2O)cc1 [2-Hydroxy-N'-[(Z)-(4-isopropylphenyl)methylidene]benzohydrazide (12)] | 4.40 | 4.14
25 | O=C(N/N=C\c1ccc(O)cc1)c1ccccc1O [2-Hydroxy-N'-[(Z)-(4-hydroxyphenyl)methylidene]benzohydrazide (28)] | – | 3.37
